Test results as given in patent US20150018311A1, “THERAPEUTIC BORON-CONTAINING COMPOUNDS” (priority 2012, published 2015).

What was measured:
Test in all cases: Growth in liquid media in presence of test compound
Assay type in all cases: cell-based
[1] = tested on: Mycobacterium tuberculosis (H37Rv)
[2] = tested on: Escherichia coli (ATCC 25922)
[3] = tested on: Candida albicans (ATCC 90028)
[4] = tested on: Staphylococcus aureus (ATCC 25923)
[5] = tested on: Pseudomonas aeruginosa (ATCC 27853)
[6] = tested on: Streptococcus pyogenes (ATCC 19615)

Row | Structure (SMILES) | Growth in the presence of test compound, M. tuberculosis ([1]; 5 mg/L) | Growth in the presence of test compound, M. tuberculosis ([1]; 50 mg/L) | Growth in the presence of test compound, M. tuberculosis ([1]; 500 mg/L) | Growth in the presence of test compound, E. coli ([2]; 5 mg/L) | Growth in the presence of test compound, E. coli ([2]; 50 mg/L) | Growth in the presence of test compound, E. coli ([2]; 500 mg/L) | Growth in the presence of test compound, C. albicans ([3]; 5 mg/L) | Growth in the presence of test compound, C. albicans ([3]; 50 mg/L) | Growth in the presence of test compound, C. albicans ([3]; 500 mg/L) | Growth in the presence of test compound, S. aureus ([4]; 5 mg/L) | Growth in the presence of test compound, S. aureus ([4]; 50 mg/L) | Growth in the presence of test compound, S. aureus ([4]; 500 mg/L) | Growth in the presence of test compound, P. aeruginosa ([5]; 5 mg/L) | Growth in the presence of test compound, P. aeruginosa ([5]; 50 mg/L) | Growth in the presence of test compound, P. aeruginosa ([5]; 500 mg/L) | Growth in the presence of test compound, S. pyogenes ([6]; 5 mg/L) | Growth in the presence of test compound, S. pyogenes ([6]; 50 mg/L) | Growth in the presence of test compound, S. pyogenes ([6]; 500 mg/L)
1 | CC1(C)C2CC3OB([C@@H](CNC(=O)[C@H](N)CCCCN)Cc4ccccc4)O[C@]3(C)C1C2 (stereo partly drawn) [Compound 12] | ± | − | − | + | + | − | + | + | − | + | + | ± | + | + | ± | + | + | −
2 | CC1(C)C2CC3OB(CC(Cc4ccccc4)NC(=O)C(N)CCCCN)OC3(C)C1C2 (stereo not drawn) [Compound 54] | + | + | − | + | + | − | + | + | − | + | + | − | + | + | − | + | + | −
3 | CC1(C)C2CC3OB([C@@H](CNC(=O)[C@@H](N)Cc4ccccc4)Cc4ccc(OC(F)(F)F)cc4)O[C@]3(C)C1C2.Cl (stereo partly drawn) [Compound 55] | − | − | − | + | + | + | + | + | ± | + | ± | + | + | + | + | + | ± | +
4 | CC1(C)C2CC3OB(C(Cc4ccccc4)C(Cc4ccccc4)NC(=O)C(N)CCCCN)OC3(C)C1C2 (stereo not drawn) [Compound 31] | + | − | − | + | + | − | + | + | − | + | + | − | + | + | − | + | + | −
5 | CC1(C)C2CC3OB(C(CNC(=O)C(N)CCCCN)Cc4ccc(OC(F)(F)F)cc4)OC3(C)C1C2.Cl.Cl (stereo not drawn) [Compound 53] | ± | − | − | + | + | + | + | + | − | + | + | + | + | + | − | + | + | −
6 | N[C@@H](Cc1ccccc1)C(=O)NC[C@@H](Cc1ccccc1)[B-](F)(F)F.[K+] [Compound 42] | + | − | − | + | + | + | + | ± | ± | + | + | + | + | + | + | + | + | ±
7 | CC1(C)C2CC3OB([C@H](CCc4ccccc4)CNC(=O)[C@@H](N)Cc4ccccc4)O[C@]3(C)C1C2 (stereo partly drawn) [Compound 18] | + | − | − | + | + | + | + | ± | ± | + | − | ± | + | ± | ± | + | ± | ±
8 | CC(NC(=O)C(N)CCCCN)C(Cc1ccccc1)B1OC2CC3CC(C3(C)C)C2(C)O1 (stereo not drawn) [Compound 26] | − | − | − | + | + | − | + | + | − | + | + | − | + | + | − | + | + | −
9 | CC1(C)C2CC3OB(C[C@@H](Cc4ccccc4)NC(=O)[C@H](Cc4ccccc4)NC(=O)[C@@H](N)Cc4ccccc4)O[C@]3(C)C1C2.Cl (stereo partly drawn) [Compound 45] | + | − | + | + | + | + | + | + | − | + | ± | + | + | + | + | + | + | +
10 | CC(B1OC2CC3CC(C3(C)C)C2(C)O1)C(Cc1ccccc1)NC(=O)C(N)CCCCN (stereo not drawn) [Compound 30] | + | − | − | + | + | − | + | + | − | + | + | − | + | + | − | + | + | −
